# Experimental data from patent US20240091385A1, “METHODS OF ASSESSING SELECTIVE GLUCOCORTICOID RECEPTOR MODULATION AND OF IDENTIFYING AND TREATING PATIENTS LIKELY TO BENEFIT FROM GLUCOCORTICOID RECEPTOR MODULATION” (Corcept Therapeutics Incorporated, priority 2022, published 2024).
# Assays:
# [1] = tested on: other hormone receptors; settings: cited from earlier work
# [2] = tested on: CLEC10A; test: Whole blood CLEC10A RNA after prednisone in healthy volunteers (NCT03335956); format: in vivo, human
# Protocol: This was a Phase 1 single-ascending dose (SAD) and multiple-ascending dose (MAD) study to assess the safety and pharmacological activity of exicorilant. Co-dosing of exicorilant with prednisone 25 mg, and comparison to the effects of prednisone alone, established the pharmacological activity of exicorilant. Only the specimens collected after dosing with prednisone alone were analyzed for the studies described below. Blood was collected in the morning prior to dosing in PAXgene RNA tubes. 4 hours after a dose of prednisone 25 mg, blood was drawn again. […] (Nanostring Technologies, Seattle WA, USA).
# [3] = tested on: GR target genes in whole blood; test: Whole blood RNA fold change (NanoString 444-gene panel), randomized phase 2 ovarian cancer study NCT03776812; format: in vivo, human; settings: ovarian phase 2 study, summary statement
# Protocol: This phase 2, open-label, randomized, 3-arm study was performed in accordance with the principles of the Declaration of Helsinki, the Good Clinical Practice guidelines of the International Council on Harmonisation, and local regulatory requirements. The protocol was approved by the institutional review board or independent ethics committee at each investigative site. All patients or their legally authorized representatives provided written informed consent. […] Blood (2.5 mL) was drawn into a […] blood RNA tube (Qiagen) using a butterfly needle. The tube was sealed and gently inverted 10 times. The tube was frozen in dry ice and stored at -80° C. until RNA extraction. […] (Nanostring Technologies, Seattle WA, USA). […] For baseline only analyses, gene abundance is reported as normalized counts. Data were analyzed and adjusted P-values (with Benjamini-Yekutieli false discovery rate corrections) were determined in nSolver 4.0 (NanoString Technologies, Seattle, WA). Cross validated random forest techniques were used to derive a gene signature that could distinguish the relacorilant+nab-paclitaxel group from nab-paclitaxel alone ([…], Poland, Study WO5).
Structure (SMILES),affinity for other hormone receptors [1],"CLEC10A fold change ([2]; 4 hours after prednisone 25 mg, adj P=6.4×10^−8)",CLEC10A expression in whole blood ([2]; prednisone 25 mg),CLEC10A expression in whole blood [3]
"Cn1ncc(S(=O)(=O)N2CC[C@H]3Cc4c(cnn4-c4ccc(F)cc4)C[C@]3(C(=O)c3cc(C(F)(F)F)ccn3)C2)n1 [exicorilant, ((4aR,8aS)-1-(4-fluorophenyl)-6-((2-methyl-2H-1,2,3-triazol-4-yl)sulfonyl)-4,4a,5,6,7,8,8a,9-octahydro-1H-pyrazolo[3,4-g]isoquinolin-4a-yl)(4-(trifluoromethyl)pyridin-2-yl)methanone]",no affinity,,,
C[C@]12C=CC(=O)C=C1CC[C@@H]1[C@@H]2C(=O)C[C@@]2(C)[C@H]1CC[C@]2(O)C(=O)CO [prednisone],,0.37,suppressed,
"Cn1cc(S(=O)(=O)N2CCC3=Cc4c(cnn4-c4ccc(F)cc4)C[C@]3(C(=O)c3cc(C(F)(F)F)ccn3)C2)cn1 [relacorilant, (R)-(1-(4-fluorophenyl)-6-((1-methyl-1H-pyrazol-4-yl)sulfonyl)-4,4a,5,6,7,8-hexahydro-1H-pyrazolo[3,4-g]isoquinolin-4a-yl)(4-(trifluoromethyl)pyridin-2-yl)methanone]",no affinity,,,induced
